According to patent US20100278849A1, “PROSTATIC ACID PHOSPHATASE ANTIGENS” (priority 2004, published 2010):
Values joined by “and” are separate entries in the source; they are usually repeats but may differ in a detail not shown here. Equal entries are not always repeated. “Also recorded” adds a separate entry of the source.

Assays:
IFN-γ [1] = assay: Cytokine production by splenocytes of immunised C57BL/6-DR4 mice, ELISA; format: cell-based; settings: relevant versus irrelevant peptide
Procedure: (§1) After 6 days, the spleens from immunised animals were collected and the cells flushed out using T cell media (RPMI+10% FCS+20 mM HEPES buffer+50 μM 2-mercaptoethanol+50 U/ml penicillin/streptomycin+0.25 μg/ml fungizone). The remaining splenic tissue was digested using an enzyme cocktail (0.1 U/ml DNAase (Sigma)+1.6 mg/ml collagenase (Sigma)) for 1 hour at 37° C. The cell suspension obtained was pooled with the flushed cells, washed once, and the splenocytes were plated in 24 well plates with 10 μg/ml of peptide at a density of 2.5×10^6/ml for FVB/N-DR1 or 3.5×10^6/ml for C57BL/6-DR4. Cells were also cultured with an irrelevant peptide as a control. To measure cytokine production, culture supernatants were collected on day 2 and 5 of the culture for the measurement of cytokine by ELISA.
(§2) Aliquots of supernatants were removed from CTL cultures on days 1 and 5 and on days 2 and 5 from CD4′ T cell cultures and stored at −20° C. until required. ELISA was used to quantitate concentrations of murine IFN-γ and IL-5 (R&D systems, UK).
We further investigated HLA-DR class-II restricted responses to PAP peptides that were predicted to bind to HLA-DR1 and HLA-DR4 according to the evidence-based computer assisted algorithm […]. The peptides displaying high binding scores for both HLA-DR alleles were selected and further studied (Table 1). C57BL/6-DR4 mice were immunised with these predicted HLA-DR-restricted PAP and the proliferative and IFN-γ response to peptide stimulation in vitro was monitored by proliferation assays and cytokine measurements. PAP. 64 and PAP.

IFN-γ [2] = assay: IFN-γ ELISPOT of rested CD8-depleted T cells with peptide-pulsed BM-DC; format: cell-based, mice; settings: BM-DC pulsed with PAP.161 versus Flu peptide
HLA-DRβ1*0101 = assay: Proliferation of splenocytes from immunised HLA-DR1 mice with peptide-pulsed BM-DC (tritiated thymidine); format: cell-based; settings: responding/total mice, after re-stimulation in vitro with relevant peptide
Procedure: (§3) HLA-A2.1/K^b mice were immunised with an emulsion consisting of 100 μg of the putative class-I peptide epitope and 100 μg of non-specific class-II peptide derived from hepatitis B virus in 50% incomplete Freund's adjuvant (IFA). HLA-DR4- and HLA-DR1-transgenic mice were immunised twice at one week interval with 100 μg of class-II peptide emulsified in 50% incomplete Freund's adjuvant (IFA) and 50% PBS. All vaccine were delivered as a 100 μl intradermal bolus inoculum at the base of the tail.
(§4) 0DC were generated using a method adapted from Inaba et al (Inaba et al. 1992). Briefly, femurs and tibias were harvested aseptically from non-immunised DR1 or DR4 transgenic mice and placed in sterile PBS supplemented with 50 IU/ml penicillin, 50 μg/ml streptomycin, and 0.25 μg/ml fungizone. The marrow was flushed out of the bone using BM-DC media (RPMI 1640 medium supplemented with 2 mM glutamine, 5% FCS, 10 mM Hepes, 501M 2-ME, 50 μg/ml penicillin, 50 μg/ml streptomycin, 0.25 μg/ml fungisone and 10% of supernatant collected from X-63 cells). The cells were washed once in BM-DC media and plated in 24-well plates at 10^6/well in 1 ml DC media and incubated at 37° C. in a 5% CO2 humidified atmosphere. On days 2 and 4, the non-adherent cells (T cells, B cells, granulocytes) were removed, and the remaining cells were cultured in fresh DC medium. After 7-9 days, clusters of loosely adherent DC were dislodged and collected by gently pipetting, before being washed and seeded in 24-well plates at 0.5×10^6 cells/well in 1 ml DC media. Peptides were added at 1 μg/well and the plates were incubated at 37° C. 1 μg/ml of LPS was added after 5 hours, and the plates were incubated overnight at 37° C. in a 5% CO2 in air-humidified atmosphere.
as §1
Splenocytes from immunised animals cultured for 6 days in the presence of 10 μg of the test peptide were harvested, washed and counted. CD8+ T cells were depleted from the cell suspension using anti-CD8+ antibody coupled with magnetic beads (Dynal, UK) as per the manufacturers instructions. Cells were then washed in PBS and resuspended at 5×10^5/ml in T cell medium. 100 μl of T cells was then added to all wells. Anti-DR antibody (L243) or isotype control were added to some wells to confirm the MHC specificity of the T-cell response. LPS-treated dendritic cells were harvested, washed and incubated in 1 ml of DC medium with the addition of 10 íg of peptide at 37° C. for 5 hours. After washing, 10^3 peptide-pulsed DC were added to the relevant wells of lymphocyte cultures in 50 íl media. […] Plates were harvested onto 96 Uni/Filter (Packard), the scintillation liquid (Microscint 0, Packard) was added and the plates were counted on a Top-Count counter (Packard). […]

IFN-γ [3] = assay: Cytokine production by splenocytes of immunised FVB/N-DR1 mice, ELISA; format: cell-based
Procedure: as §1, §2

HLA-DRβ1*0401 = assay: Proliferation of splenocytes from immunised HLA-DR4 mice with peptide-pulsed BM-DC (tritiated thymidine); format: cell-based
Procedure: as §3, §4, §1
[…] CD8+ T cells were depleted from the cell suspension using anti-CD8+ antibody coupled with magnetic beads (Dynal, UK) as per the manufacturers instructions. Cells were then washed in PBS and resuspended at 5×10^5/ml in T cell medium. 100 μl of T cells was then added to all wells. Anti-DR antibody (L243) or isotype control were added to some wells to confirm the MHC specificity of the T-cell response. LPS-treated dendritic cells were harvested, washed and incubated in 1 ml of DC medium with the addition of 10 íg of peptide at 37° C. for 5 hours. After washing, 10^3 peptide-pulsed DC were added to the relevant wells of lymphocyte cultures in 50 íl media. These plates were then incubated for 3 days at 37° C. in a 5% CO2 in air-humidified atmosphere. Tritriated thymidine was then added to the culture and incubated again for 18 hours. Plates were harvested onto 96 Uni/Filter (Packard), the scintillation liquid (Microscint 0, Packard) was added and the plates were counted on a Top-Count counter (Packard). Results are expressed in counts per minute (cpm) and as a means of the triplicate wells. Statistical analysis was performed using unpaired Student's t test. […]

LNCaP cells = assay: 51Chromium cytotoxicity assay of splenocytes from PAP.135 immunised mice against LNCaP cells; format: cell-based, human; settings: LNCaP express HLA-A2 and PAP
Procedure: (c): Cytotoxicity against LNCaP cells by splenocytes derived from PAP.135 immunised mice. Results are representative of 10 mice and 2 individual experiments.
(§5) LNCaP is a human prostate cancer cell-line known to express HLA-A2 and PAP. Cells were propagated in RPMI 1640 media (GibcoBRL, UK) supplemented with 10% foetal calf serum (BioWhittaker, Belgium), 100 U/ml penicillin with 100 μg/ml streptomycin (GibcoBRL, UK), 5 ng/ml hydrocortisone and 5 ng/ml testosterone (Sigma, USA). […] Cells were grown in suspension in tissue culture flasks containing RPMI 1640 (GibcoBRL, UK) with 10% foetal calf serum (FCS) (BioWhittaker, Belgium) and 1% L-glutamine supplement (GibcoBRL, UK).
Target cells were pulsed overnight with test peptide or an irrelevant HLA-A2 binding epitope and labelled for 1 hour with 1.85 MBq ^51Chromium. For cytotoxicity assays involving tumour cell-lines, cells were treated with 100 U/ml IFN-γ for 24 hours prior to ^51Chromium labelling. Target cells were washed and allowed to stand in CTL media for 1 hour before washing again. […] HLA-A2 dependence was determined by the addition of anti-HLA-A2 antibody (Serotec, UK) to some wells. […] Supernatants were harvested and analysed using a Top Count™ gamma counter (Can berra-Packard, USA). Specific lysis was determined as follows: […]

LCL cells = assay: 51Chromium cytotoxicity assay of splenocytes from PAP.135 immunised mice against LCL cells; format: cell-based, human; settings: LCL express HLA-A2 but not PAP
Procedure: as §5
Target cells were pulsed overnight with test peptide or an irrelevant HLA-A2 binding epitope and labelled for 1 hour with 1.85 MBq ^51Chromium. For cytotoxicity assays involving tumour cell-lines, cells were treated with 100 U/ml IFN-γ for 24 hours prior to ^51Chromium labelling. Target cells were washed and allowed to stand in CTL media for 1 hour before washing again. Target cells and effector CTLs were co-incubated at various ratios in 96-well plates in a final volume of 200 μl for 4 hours at 37° C. HLA-A2 dependence was determined by the addition of anti-HLA-A2 antibody (Serotec, UK) to some wells. Maximum and spontaneous release of ^51Chromium was ascertained by incubating target cells with 2% SDS or media alone, respectively. Supernatants were harvested and analysed using a Top Count™ gamma counter (Can berra-Packard, USA). Specific lysis was determined as follows: […]

HLA-A2*0201 = HLA-A2*0201 (Homo sapiens, UniProt P04439, D140Y/D185E/D98H/E176V/E277Q/G131W/G231S/I119V/I121R/I166T/I218V/L300P/L318F/N151K/N90K/P208A/P217A/Q86G/Q94H/R138H/R169H/T345S); format: cell-based; settings: peptide at 100, 10 and 1 μM; compared with positive control influenza M1 peptide; three independent experiments
IFN-γ [4] = assay: IFN-γ release by splenocyte (CTL) cultures, ELISA; format: cell-based, mice
Procedure: After at least 7 and not more than 10 days, immunised animals were killed, and the spleens recovered into transport media. Spleens were gently macerated and flushed by injecting 10 ml “CTL culture media” (RPMI 1640, 1% L-glutamine, 10% FCS (PAA labs), 20 mM Hepes, 50 μM 2-mercaptoethanol, 50 U/ml penicillin, 500 U/ml streptomycin and 0.25 μg/ml fungizone) under pressure through a fine bore hypodermic needle introduced through the spleen capsule, thus facilitating the isolation of splenocytes. The remaining tissue was diced and digested for 1 hour at 37° C. using an enzyme cocktail (IMDM containing […] 2-ME, 100 U/ml penicillin+1000 U/ml streptomycin, 8 mg/ml collagenase and 1% DNAse). The flushed and digested cell populations were washed and pooled, and then seeded into 15 wells of a 24 well-plate at 5×10^6 cells/well in 2 ml of media containing 20 μg peptide. The test peptide was added to 12 wells, while 3 wells received an irrelevant class-I peptide as a control. Splenocyte cultures were incubated for 5 days at 37° C.
as §2
Figures represent the ratio of IFN-γ released by splenocytes stimulated in vitro by PAP.135 to IFN-γ released by splenocytes stimulated in vitro by an irrelevant HLA-A2*0201 CTL epitope. The mean results of 10 experiments using splenocytes derived from PAP.135-immunised mice are given, and 1 in which splenocytes derived from non-immunised (naive mice) were used.

RMAS-HLA-A2 cells = assay: 51Chromium cytotoxicity assay of splenocytes from HLA-A2.1/Kb mice against peptide-pulsed RMAS cells; format: cell-based; settings: for % cytoxicity at 50:1 ratio RMAS + irrel.: targets pulsed with irrelevant peptide

For “CPRFQELESETLKSE (listed as Homo sapiens) [PAP.161]”, the “IFN-γ production by splenocytes” value (IFN-γ [1]) was “produced in large quantities”, the “IFN-γ production, ELISPOT” value (IFN-γ [2]) was “high amount of IFN-γ in peptide specific manner; also recorded: producing IFN-γ” and the “number of HLA-DR1 mice whose splenocytes demonstrated specific proliferation” value (HLA-DRβ1*0101) was 3 out of 6 and 3/6. For the same sequence, the “IFN-γ or IL-50 (cytokine) production of splenocytes” value (IFN-γ [3]) was “no production of cytokines could be detected in high enough levels”, the “proliferative response to peptide-pulsed BM-DC” value (HLA-DRβ1*0401; 7 days in vitro stimulation, CD8+ T cells removed, rested 7 days) was “Significant proliferation; also recorded: consistently confirmed; also recorded: responded specifically” and the “effect of anti-HLA-DR antibody (L243) on proliferation” value (HLA-DRβ1*0401; not blocked by isotype control) was “blocked in the presence of HLA-DR antibody; also recorded: blocked by the addition of L243 antibody; also recorded: inhibited by the addition of L243 antibody; also recorded: blocked by the presence of L243 antibody”. For the same sequence, the “proliferation of splenocytes from immunised HLA-DR4 mice” value (HLA-DRβ1*0401; re-stimulated in vitro with peptide for 5 days) was “Specific proliferation” and the “number of HLA-DR4 mice whose splenocytes demonstrated specific proliferation” value (HLA-DRβ1*0401; responding/total mice, after re-stimulation in vitro with relevant peptide) was 6 out of 8 and 4/6.
For “ILLWQPIPV (listed as Homo sapiens) [PAP.135]”, the “lysis of LNCaP cells” value (LNCaP cells) was “dose-dependent lysis; also recorded: highly cytotoxic”, the “lysis of LCL cells” value (LCL cells) was “not susceptible to lysis” and the “binding to HLA-A2 (T2 cells)” value (HLA-A2*0201) was “strong binding; also recorded: strongest HLA-A2 binding; also recorded: higher affinity to T2 cells”. For the same sequence, the “IFN-γ release by splenocytes stimulated in vitro” value (IFN-γ [4]; PAP.135-immunised mice, versus irrelevant epitope, day 5) was “significantly more IFN-γ; also recorded: significantly upregulated”, the “IFN-γ release by splenocytes stimulated in vitro” value (IFN-γ [4]; non-immunised (naïve) mice) was “independent of the peptide used for in vitro stimulation” and the “IFN-γ release (PAP.135:irrel.)” value (IFN-γ [4]; ratio, splenocytes from naïve (non-immunised) mouse) was 1.1. The “inhibition of peptide specific lysis by HLA-A2 blocking antibody” value (RMAS-HLA-A2 cells; PAP.135-pulsed targets, splenocytes from PAP.135 immunised mice, two separate experiments) was “approximately 80%”, the “lysis of PAP.135 pulsed RMAS-HLA-A2 cells” value (RMAS-HLA-A2 cells; splenocytes from PAP.135 immunised mice) was “lysed RMAS-HLA-A2 cells, pulsed with PAP.135 in a dose dependent manner; also recorded: highly cytotoxic” and the “% cytoxicity at 50:1 ratio RMAS + irrel.” value (RMAS-HLA-A2 cells; splenocytes from PAP.135-immunised mice, 50:1) was 2% and 7% and 9% and 4% and 1% and 5% and 3%. The “% cytoxicity at 50:1 ratio RMAS + PAP.135” value (RMAS-HLA-A2 cells; splenocytes from naïve (non-immunised) mouse stimulated with PAP.135 in vitro, 50:1) was 13%, the “% cytoxicity at 50:1 ratio RMAS + irrel.” value (RMAS-HLA-A2 cells; splenocytes from naïve (non-immunised) mouse, 50:1) was 11% and the “lysis of PAP.135 pulsed RMAS-HLA-A2 cells” value (RMAS-HLA-A2 cells; splenocytes from non-immunised (naïve) mice stimulated by PAP.135 in vitro) was “failed to demonstrate cytotoxicity; also recorded: unable to lyse target cells”.
